Tests used:
[1] = system: PC12 cells; test: Survival of differentiated PC12 cells in serum-free medium (MTS); type: cell-based; settings: for Survival Effects on Differentiated PC12 Cells in Serum-free Medium (% of 3 nM NGF): 4 days incubation, MTS; for Rescue of PC12 cells in serum-free medium: viability as reduction of MTS
Description: In this experiment the protective effect of the compounds on the survival of the pheochromocytoma cell line PC12 deprived of other survival factors were assessed following differentiation of the cells to a neuron-like phenotype.
Cells were seeded in collagen coated 96 well plates at a cell density of 8,000/cm^2 in DMEM with 7.5% Foetal Calf Serum (FCS), 7.5% Donor Horse Serum (DHS) and 2 nM NGF and cultured for 6 days. The medium was then changed to DMEM without serum supplemented with the compound in the indicated concentrations. As a positive control, parallel wells receiving serum-free DMEM without addition of vehicle […] 3 nM NGF were included.
After 4 days of incubation, cell viability was evaluated by using MTS (3-(4,5-dimethylthiazol-2-yl)-5-(3-carboxymethoxyphenyl)-2-(4-sulfonyl)2H-tetrazolium) which is reduced by metabolically active cells. Data are expressed as % of the response seen with 3 nM NGF corrected for residual MTS reduction activity in the parallel serum-free cultures (“% of NGF control”).

[2] = system: transient global ischaemia in gerbils (hippocampal CA1-layer damage); settings: gerbil; 4 minutes ischaemia; 2×30 mg/kg ip. after the insult; four days later
Description: Gerbils were anaesthetised with halothane, right and left carotid arteries located and occluded for 4 minutes. Animals were kept at normal body temperature before and after the operation using heating lamps. During the operation, the gerbils were placed on heating pads, the body temperature was controlled and maintained at 37±0.5° C.
Four days later, the animals were sacrificed, brains removed and cooled to −70° C. Thereafter, the brains were sectioned in 20 μm thick sections of which 5-7 with hippocampal tissue were selected and stained with hematoxylin-eosin.
The degree of hippocampal damage was categorised into one of four groups:
Group 1: no damage in the CA1-layer;
Group 2: the CA1-layer partly damaged;
Group 3: the CA1-layer completely damaged; and
Group 4: damage in more then just the CA1-layer. The total ischaemia score was obtained as the sum of scores in the right- and left hemisphere. Kendall's tau test was used for statistic evaluation.

[3] = system: PC12 cells; settings: two days
Description: In this experiment the ability of the compounds to potentiate NGF-induced neurite outgrowth in PC12 cells was assessed.
PC12 cells were seeded in tissue culture plates coated with collagen at a cell density of 15,000/cm^2 in DMEM with 7.5% FCS and 7.5% DHS. Next day the medium was changed to medium supplemented with the NS compound in the absence or presence of NGF.
Two days after the medium change, cells were fixed in 4% paraformaldehyde and stained for neurofilament. Cells were fixed by in tissue culture plates by incubation in 4% paraformaldehyde in PBS followed permeabilization in 0.05% Triton-X100 in the presence of 10% DHS to block non-specific binding sites. After washing, the plates were incubated with anti-neurofilament (NF) antibody (clone RT97) from Boehringer diluted 1:200 in 0.05% Triton-X100/10% DHS followed by incubation with biotinylated anti-mouse immunoglobulin RPN1001 (Amersham) diluted 1:200. NF-immunoreactive cells were stained using the ABC-complex/HRP kit K0355 (DAKO) and 3,3-diaminobenzidine tetrahydrochloride (DAB) as substrate.
Estimation of total cell number per well, as well as the total neurite length was done using unbiasedly 2D stereology (CAST-grid system connected to a Olympus BH-2 microscope).

[4] = system: Akt kinase; settings: 1-3 μM; PC12 cells; 24 hours with NGF
Description: (§1) Approximately 200,000 PC12 cells were plated in a 24 well plate in DMEM with 7.5% FCS and 7.5% DHS and incubated ON.
(§2) Total cell lysate was electrophoresed on 8-18% gradient SDS gels which were electroblotted to PVDF membranes. Phosphorylated ERK1 and ERK2 were immunodetected by using mouse anti-Phospho-p44/p42 MAP kinase E10 mAb (New England Biolabs #9106) and HRP-linked anti-mouse antibody. Phosphorylated Akt kinase was immunodetected by using rabbit phospho-specific Akt (Ser473) antibody (New England Biolabs # 9271) and HRP-linked anti-rabbit antibody. Bands were detected by chemilumininescence using the ECL system (Amersham).

[5] = system: the ERKs (ERK1 and ERK2); settings: 1-3 μM; PC12 cells; 24 hours with NGF
Description: as §1, §2

[6] = system: CREB; settings: after 5 minutes stimulation (not shown)
Description: The cyclic AMP-responsive element binding protein (CREB) is a post-translationally activated transcription factor that has been implicated in numerous neuronal functions including cell survival, differentiation and neurotransmission.
Approximately 7.5×10^5 PC12 cells per well were plated in collagen coated 6-well plates in DMEM with 0.75% FCS and 0.75% DHS and incubated for 48 hours. Cells were then further starved for 2 hours in serum free DMEM before stimulation with the indicated compounds for 5, 10 or 20 minutes. Cells were harvested in 1× heated sample buffer (2% SDS, 400 mM Tris, pH 8.0, 10 mM DTT and 0.25 mM Na3VO4) and the cell lysates were electrophoresed on 8-18% gradient SDS gels, which were electroblotted to PVDF membranes.
Phosphorylated CREB were immunodetected by using rabbit anti-Phospho-CREB (UpState Biotechnology #06-519) followed by HRP-linked anti-rabbit antibody (Amersham Life Science #NA 934). Bands were detected by chemilumininescence using the ECL system (Amersham).

[7] = system: dopaminergic neurons from rat E14 ventral mesencephali; settings: 1 μM; E14 rat VM; 7 days in culture
Description: Embryonic rat brains (Wistar; E14) were isolated under sterile conditions placed in chilled Gey's balanced salt solution (GIBCO) with glucose (6.5 mg/ml).
The ventral mesencephali were dissected out, cut into small tissue pieces, placed in Neurobasal medium with B27 supplement and gently pressed through a 80 μm Nitex filter. The cells were counted using a hemocytometer and plated in a 6 well multi-dish at a density of approximately 2.0×10^6 cells/well. Culture dishes were pre-coated with poly-D-lysine.
After 1 hour, the medium was removed and fresh medium added (1.5 ml/well). […] Untreated cultures served as controls. The medium was changed every other day and antimitotics and antibiotics were not used at any stage.
After 7 days in culture, cultures were then immunostained for tyrosine hydroxylase (TH). Briefly, the cells were washed in 0.05M tris-buffered saline (TBS, pH 7.4) containing 1% Triton X-100 for 3×15 minutes and incubated with 10% foetal bovine serum (FBS, Life Technologies) in TBS for 30 minutes. The cells were then incubated for 24 hours at 4° C. with monoclonal mouse anti-TH antibody (Boehringer Mannheim) diluted 1:600 in TBS with 10% FBS. After rinsing in TBS with 1% Triton X-100 for 3×15 minutes, cells were incubated for 60 minutes with biotinylated anti-mouse IgG antibody (Amersham) diluted 1:200 in TBS with 10% FBS. […] TH-immunoreactive (ir) cells were counted manually.

[8] = system: dopaminergic neurons from pig E28 ventral mesencephali; settings: 1 μM; E28 pig VM slice cultures; 21 days in vitro
Description: Ventral mesencephali (VM) were isolated from porcine embryos (E28) under sterile conditions, chopped into 400 μm slices and placed in chilled Gey's balanced salt solution (GIBCO) with glucose (6.5 mg/ml).
In brief, slices were placed on semiporous membranes (Millipore, 0.3 μm; 4 slices/membrane) placed as inserts in 6-well plates (Costar) with serum containing medium (Gibco BRL). Each well contained 1 ml medium (50% Optimem, 25% horse serum, 25% Hank's balanced salt solution (all GIBCO)) supplemented with D-glucose to a final concentration of 25 mM.
At day 3, the medium was replaced by defined serum-free medium (Neurobasal medium with B27 supplement from Life Technologies). The cultures were grown in an incubator with 5% CO2 at 36° C. for 21 days after which the sections were immunostained for TH as described in Example 4. […] Untreated cultures served as controls. The medium was changed twice a week and antimitotics and antibiotics were not used at any stage.
The area of the culture slice was delineated and a counting frame was randomly placed to mark the first area to be sampled.

SMILES | Survival Effects on Differentiated PC12 Cells in Serum-free Medium (% of 3 nM NGF) ([1]; 0.1 μM) | Survival Effects on Differentiated PC12 Cells in Serum-free Medium (% of 3 nM NGF) ([1]; 0.2 μM) | Survival Effects on Differentiated PC12 Cells in Serum-free Medium (% of 3 nM NGF) ([1]; 0.5 μM) | Survival Effects on Differentiated PC12 Cells in Serum-free Medium (% of 3 nM NGF) ([1]; 0.75 μM) | Survival Effects on Differentiated PC12 Cells in Serum-free Medium (% of 3 nM NGF) ([1]; 1 μM) | Survival Effects on Differentiated PC12 Cells in Serum-free Medium (% of 3 nM NGF) ([1]; 2 μM) | Survival Effects on Differentiated PC12 Cells in Serum-free Medium (% of 3 nM NGF) ([1]; 5 μM) | Survival Effects on Differentiated PC12 Cells in Serum-free Medium (% of 3 nM NGF) ([1]; 7.5 μM) | Survival Effects on Differentiated PC12 Cells in Serum-free Medium (% of 3 nM NGF) ([1]; 10 μM) | Rescue of PC12 cells in serum-free medium [1] | Animals with no or only partially damage in the CA1 neurons of the hippocampus [2] | Effect on neurite outgrowth in PC12 cells, compound alone ([3]; 1 and 3 μM, without NGF) | Potentiation of NGF-induced neurite outgrowth in PC12 cells ([3]; with NGF) | Effect on NGF-induced phosphorylation of the Akt kinase [4] | Effect on NGF-induced phosphorylation of the ERKs [5] | Combined effect of NGF and compound on CREB phosphorylation [6] | More TH-immunoreactive cells compared to untreated control cultures [7] | More TH-immunoreactive cells compared to untreated control cultures [8]
Cl.O=C1Nc2c(cc(-c3ccc(Cl)cc3)c3c2CCCC3)C1=NO [Compound G-2, 5-(4-Chlorophenyl)-6,7,8,9-tetrahydro-1-H-pyrrolo[3.2-h]naphthalene-2,3-dione-3-oxime hydrochloric acid salt] | 7.77 ± 1.86 % of 3 nM NGF | 16.58 ± 4.36 % of 3 nM NGF | 17.30 ± 4.43 % of 3 nM NGF | 23.54 ± 1.60 % of 3 nM NGF | 27.63 ± 6.91 % of 3 nM NGF | 33.31 ± 5.22 % of 3 nM NGF | 50.25 ± 4.28 % of 3 nM NGF | 54.83 ± 4.37 % of 3 nM NGF | 74.66 ± 5.70 % of 3 nM NGF | dose-dependent rescue | ≈ 50% | – | – | – | – | – | – | –
CN1CCc2c(-c3ccc(Cl)cc3)cc3c(c2C1)NC(=O)C3=NO.Cl [Compound G-1, 5-(4-Chlorophenyl)-8-methyl-6,7,8,9-tetrahydro-1-H-pyrrolo[3.2-h]isoquinoline-2,3-dione-3-oxime hydrochloric acid salt] | 11.09 ± 1.42 % of 3 nM NGF | 12.78 ± 2.01 % of 3 nM NGF | 28.62 ± 1.77 % of 3 nM NGF | 32.05 ± 3.36 % of 3 nM NGF | 52.60 ± 3.40 % of 3 nM NGF | 60.47 ± 2.26 % of 3 nM NGF | 74.85 ± 4.67 % of 3 nM NGF | 62.08 ± 3.70 % of 3 nM NGF | 63.80 ± 4.09 % of 3 nM NGF | dose-dependent rescue | – | some effect on neurite outgrowth | significantly potentiate NGF-induced neurite outgrowth | potentiate NGF-induced phosphorylation | potentiate NGF-induced phosphorylation | additive effect | 81% | 37%
O=C1Nc2ccc(-c3ccc(Cl)cc3)cc2C1=NO [Compound G-3, 5-(4-Chlorophenyl)isatin-3-oxime] | −0.34 ± 1.59 % of 3 nM NGF | 23.83 ± 3.61 % of 3 nM NGF | 28.20 ± 2.55 % of 3 nM NGF | 30.66 ± 3.83 % of 3 nM NGF | 36.11 ± 3.02 % of 3 nM NGF | 41.53 ± 3.00 % of 3 nM NGF | 49.63 ± 4.67 % of 3 nM NGF | 67.60 ± 5.54 % of 3 nM NGF | 72.23 ± 4.34 % of 3 nM NGF | dose-dependent rescue | – | – | – | – | – | – | – | –
